SMILES strings stand for the structures.

The assay has as its target T1, EncN (Streptomyces maritimus, UniProt Q9KHK1).
T1 sequence (Q9KHK1 1-522): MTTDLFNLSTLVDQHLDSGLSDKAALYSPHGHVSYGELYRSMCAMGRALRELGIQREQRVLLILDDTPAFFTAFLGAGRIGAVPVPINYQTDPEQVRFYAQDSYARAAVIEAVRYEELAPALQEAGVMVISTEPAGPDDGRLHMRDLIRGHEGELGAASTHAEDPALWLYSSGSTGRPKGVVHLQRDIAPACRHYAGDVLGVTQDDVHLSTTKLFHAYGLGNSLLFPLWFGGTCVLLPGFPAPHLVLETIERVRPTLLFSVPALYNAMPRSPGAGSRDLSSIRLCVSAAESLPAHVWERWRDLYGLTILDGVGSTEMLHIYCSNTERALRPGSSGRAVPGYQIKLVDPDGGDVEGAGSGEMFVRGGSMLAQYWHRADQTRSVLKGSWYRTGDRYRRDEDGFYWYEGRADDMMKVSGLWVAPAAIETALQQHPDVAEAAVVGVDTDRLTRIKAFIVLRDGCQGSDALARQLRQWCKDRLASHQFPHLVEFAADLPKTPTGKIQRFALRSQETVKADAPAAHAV
T1 sequence (Q9KHK4 1-82 partner): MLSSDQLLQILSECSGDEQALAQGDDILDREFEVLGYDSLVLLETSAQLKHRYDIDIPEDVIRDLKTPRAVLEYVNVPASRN
Kind of assay: FTMS of acyl loading on holo-EncC. The note with it: ATP 10 mM, EncN 2 uM, holo-EncC 20 uM. It is filed as biochemical.

In the case of `O=C(O)c1ccccc1` [benzoic acid], where the note is “benzoic acid 10 mM”, the “FTMS of acyl loading on holo-EncC” value is “Upon incubation with EncN, benzoate was transferred in typical nonribosomal peptide synthetase fashion”.

As for `O=C(O)c1ccccc1O` [salicylic acid], under “benzoic acid omitted”, the “FTMS of acyl loading on holo-EncC” value is “in its absence, EncN preferentially activates and loads salicylate”.
